Counter-ions that a name gives are not always drawn. Like-named read-outs stand apart in the source and are kept apart here.
Tests used:
[1] = test system: Trichophyton mentagrophytes; conditions: at a low concentration; cited from earlier work
[2] = in vivo; cited from earlier work
[3] = test system: Candida albicans; assay: Antifungal activity on Sabouraud agar medium, MIC and FIC index (Test Examples 1 and 2); format: cell-based; conditions: cultured 2 days
Protocol: (§1) Amorolfine hydrochloride and each specimen (hereinafter referred to as “medicine”) at a mass ratio of 1:1 were dissolved in dimethyl sulfoxide (DMSO). Two-fold dilution series were prepared with DMSO. In the determination of the antifungal activity, the medicine and the medium were mixed together at a ratio of 1:99.
(§2) Sabouraud agar medium (Eiken) was used as a susceptibility determination medium. A microbe suspension containing 10^6 spores/mL of Candida albicans or about 10^6 conidia/mL of ringworm fungus was prepared. 5 μl of the suspension was inoculated on the Sabouraud agar medium containing the medicine with a micro-planter (a product of Sakuma Seisakusho). Candida albicans was cultured for 2 days and the tinea was cultured for 7 days.
The effect obtained by the combination was judged on the basis of the following standards (FIC index): • >2: antagonism • 2>and 1<: additive action • 1>: potentiation
(1) Amorolfine hydrochloride and each specimen (hereinafter referred to as “medicine”) at a mass ratio of 100:1 to 1:100 were dissolved in dimethyl sulfoxide (DMSO). Two-fold dilution series were prepared with DMSO. In the determination of the antifungal activity, the medicine and the medium were mixed together at a ratio of 1:99.
(2) Amorolfine hydrochloride and each specimen (hereinafter referred to as “medicine”) at a mass ratio of 1:3 to 3:1 were dissolved in dimethyl sulfoxide (DMSO). Two-fold dilution series were prepared with DMSO. In the determination of the antifungal activity, the medicine and the medium were mixed together at a ratio of 1:99.
as §2, with “conidia/mL of each of two kinds of ringworm fungus” for “conidia/mL of ringworm fungus”, “agar medium with a” for “agar medium containing the medicine with a”, “and the Tinea fungus was cultured” for “and the tinea was cultured”

[4] = male and female rabbits, percutaneous; cited from earlier work
[5] = test system: Candida albicans; conditions: cited from earlier work
[6] = test system: Trichophyton mentagrophytes TIMM 1189; assay: Tinea infection model of guinea pigs, culture test (Test Example 3); format: in vivo; conditions: 0.75 mass % in polyethylene glycol 400 (combination 1:2), 0.1 mL once a day for 5 days from 3 days after inoculation; culture on 5th day after last application; 10 loci
Protocol: Amorolfine hydrochloride and each specimen (hereinafter referred to as “medicine”) at a mass ratio of 1:2 were dissolved in polyethylene glycol 400 to obtain a final concentration of 0.75% mass ratio. Each of amorolfine hydrochloride and the medicines was separately dissolved in polyethylene glycol 400 to obtain solutions having the final concentration of 0.75 mass %.
Male Hartley guinea pigs (Japan SLC Co., Ltd.; 6 weeks) were used. In the course of the test, they were kept separately from one another in an isolator (Negative rack, CLEA JAPAN, Inc.). They could freely have a solid food (G standard, Nihon Nosan Kogyo KK) and water.
Trichophyton mentagrophytes TIMM 1189 was cultured on slant Sabouraud glucose agar medium at 27° C. for 14 days. Then, sterilized saline containing 0.05% of Tween 80 was added thereto to obtain conidia. The resultant suspension was filtered through a cell strainer (FALCON Co., Ltd.) to remove large mycelian masses. The number of conidia was counted with hemocytometer. The conidia were diluted to 4×10^7/mL with sterilized saline containing 0.05% of Tween 80 to obtain the conidial suspension for inoculation.
The back of each guinea pig was shaved. Then, a circular inoculation part having a diameter of 2 cm was positioned on both sides of the spinal column. A gummed tape was applied thereto and then peeled. These steps was repeated three times, whereby the hair was pulled out of the skin in both parts and, at the same time, the top of the corneous layer of the skin was peeled off. The remaining hair was completely removed with tweezers. […]
When at least one of the 10 small pieces taken from one inoculated locus of the skin was the positive after the culture, the inoculated locus was judged to be positive. The ratio of positive loci after culture was calculated from the number of the cultured positive pieces in the total 10 inoculated loci in each experiment group.
The number of the cultured positive small pieces in the inoculated portion was scored as will be described below to determine the infection. […]

[7] = rabbit, in vivo; cited from earlier work
[8] = mice, cited from earlier work
[9] = rats, cited from earlier work
[10] = test system: Trichophyton mentagrophytes; assay: Antifungal activity on Sabouraud agar medium, MIC and FIC index (Test Examples 1 and 2); format: cell-based; conditions: cultured 7 days
Protocol: as §1
as §2, with “days. […]” for “days.”

[11] = test system: Trichophyton rubrum; assay: as above; format: cell-based; conditions: cultured 7 days
Protocol: as §1
as §2, with “days. […]” for “days.”

[12] = Test Example 1, amorolfine hydrochloride + medicine at mass ratio 1:1

Which “effect on germinated conidium of Trichophyton mentagrophytes” value [1] does the source give for `CN(C/C=C/C#CC(C)(C)C)Cc1cccc2ccccc12` [terbinafine hydrochloride, (E)-N-(6,6-dimethyl-2-hepten-4-ynyl)-N-methyl-1-naphthalenemethylamine hydrochloride] here?
Its value is “fungicidal effect”.

What about the “increase in the body weight of dams” value [2] of the same compound?
Its value is “suppression on the increase in the body weight of dams”.

And the “influence on the reproduction and the growth of the embryos” value [2]?
Its value is “no influence was recognized”.

And the MIC ([3]; Candida albicans, 48 h, Test Example 2, geometric mean MIC of two strains, read-out: Minimum inhibitory concentration (MIC))?
The MIC was over 8 µg/mL.

What about the “FIC index obtained by the combination of amorolfine hydrochloride with another medicine” value (from here on “FIC index obtained by the combination”) [3, 12] of the same compound?
The value was 0.27.

And the “Minimum inhibitory concentration (MIC)” value ([3]; Test Example 2, geometric mean MIC of two strains, listed as T, hydrochloride)?
The value was over 8.0 µg/mL.

And the LD50 [4]?
The LD50 was over 1500 mg/kg.

And the “concentration that exhibits a fungistatic effect on the propagation of the yeast form” value [5]?
The value was “at least 1 μg/mL”.

And the “concentration that inhibits the conversion from yeast form to mycelial form” value [5]?
Its value is “at least 0.098 μg/mL”.

What about the “rate of positive loci after culture” value [6] of the same compound?
The value was 100%.

What about the localized irritation [7] of the same compound?
Its localized irritation is “a weak irritation or a light cumulative irritation”.

And the LD50 ([8]; intravenous injection, female)?
The LD50 was 377 mg/kg.

What about the LD50 ([8]; intravenous injection, male) of the same compound?
The LD50 was 410 mg/kg.

And the LD50 ([8]; oral, female)?
Its LD50 is over 4000 mg/kg.

What about the LD50 ([8]; oral, male) of the same compound?
The LD50 was 3570 mg/kg.

What about the LD50 ([8]; subcutaneous, male and female) of the same compound?
The LD50 was over 2000 mg/kg.

What about the LD50 ([9]; intravenous injection, female) of the same compound?
Its LD50 is 206 mg/kg.

What about the LD50 ([9]; intravenous injection, male) of the same compound?
Its LD50 is 220 mg/kg.

What about the LD50 ([9]; oral, male and female) of the same compound?
Its LD50 is over 4000 mg/kg.

What about the LD50 ([9]; percutaneous, male and female) of the same compound?
The LD50 was over 2000 mg/kg.

What about the LD50 ([9]; subcutaneous, male and female) of the same compound?
The LD50 was over 2000 mg/kg.

And the “FIC index obtained by the combination” value [10, 12]?
Its value is 0.52.

What about the MIC ([10]; Trichophyton mentagrophytes, 168 h, Test Example 2, geometric mean MIC of two strains, read-out: Minimum inhibitory concentration (MIC)) of the same compound?
Its MIC is 0.011 µg/mL.

What about the “FIC index obtained by the combination” value [11, 12] of the same compound?
The value was 0.75.

And the MIC ([11]; Trichophyton rubrum, 168 h, Test Example 2, geometric mean MIC of two strains, read-out: Minimum inhibitory concentration (MIC))?
The MIC was 0.004 µg/mL.

From patent publication US20050113371A1, “Antifungal agent for topical use” (priority 2002, published 2005)
